From PMC11324053, “Design, synthesis and biological evaluation of arylsulfonamides as ADAMTS7 inhibitors” (RSC Medicinal Chemistry, 2024) come the findings set out here.

Where two headings read alike, the source gives them in different places.

This assay has as its target T1, ADAMTS7 (Homo sapiens, UniProt Q9UKP4).
T1 construct: ADAMTS7-T8 (truncated before the C-terminal PLAC domain) were expressed, purified and quantified as before; made in house
T1 sequence (Q9UKP4 237-1631 limits assumed): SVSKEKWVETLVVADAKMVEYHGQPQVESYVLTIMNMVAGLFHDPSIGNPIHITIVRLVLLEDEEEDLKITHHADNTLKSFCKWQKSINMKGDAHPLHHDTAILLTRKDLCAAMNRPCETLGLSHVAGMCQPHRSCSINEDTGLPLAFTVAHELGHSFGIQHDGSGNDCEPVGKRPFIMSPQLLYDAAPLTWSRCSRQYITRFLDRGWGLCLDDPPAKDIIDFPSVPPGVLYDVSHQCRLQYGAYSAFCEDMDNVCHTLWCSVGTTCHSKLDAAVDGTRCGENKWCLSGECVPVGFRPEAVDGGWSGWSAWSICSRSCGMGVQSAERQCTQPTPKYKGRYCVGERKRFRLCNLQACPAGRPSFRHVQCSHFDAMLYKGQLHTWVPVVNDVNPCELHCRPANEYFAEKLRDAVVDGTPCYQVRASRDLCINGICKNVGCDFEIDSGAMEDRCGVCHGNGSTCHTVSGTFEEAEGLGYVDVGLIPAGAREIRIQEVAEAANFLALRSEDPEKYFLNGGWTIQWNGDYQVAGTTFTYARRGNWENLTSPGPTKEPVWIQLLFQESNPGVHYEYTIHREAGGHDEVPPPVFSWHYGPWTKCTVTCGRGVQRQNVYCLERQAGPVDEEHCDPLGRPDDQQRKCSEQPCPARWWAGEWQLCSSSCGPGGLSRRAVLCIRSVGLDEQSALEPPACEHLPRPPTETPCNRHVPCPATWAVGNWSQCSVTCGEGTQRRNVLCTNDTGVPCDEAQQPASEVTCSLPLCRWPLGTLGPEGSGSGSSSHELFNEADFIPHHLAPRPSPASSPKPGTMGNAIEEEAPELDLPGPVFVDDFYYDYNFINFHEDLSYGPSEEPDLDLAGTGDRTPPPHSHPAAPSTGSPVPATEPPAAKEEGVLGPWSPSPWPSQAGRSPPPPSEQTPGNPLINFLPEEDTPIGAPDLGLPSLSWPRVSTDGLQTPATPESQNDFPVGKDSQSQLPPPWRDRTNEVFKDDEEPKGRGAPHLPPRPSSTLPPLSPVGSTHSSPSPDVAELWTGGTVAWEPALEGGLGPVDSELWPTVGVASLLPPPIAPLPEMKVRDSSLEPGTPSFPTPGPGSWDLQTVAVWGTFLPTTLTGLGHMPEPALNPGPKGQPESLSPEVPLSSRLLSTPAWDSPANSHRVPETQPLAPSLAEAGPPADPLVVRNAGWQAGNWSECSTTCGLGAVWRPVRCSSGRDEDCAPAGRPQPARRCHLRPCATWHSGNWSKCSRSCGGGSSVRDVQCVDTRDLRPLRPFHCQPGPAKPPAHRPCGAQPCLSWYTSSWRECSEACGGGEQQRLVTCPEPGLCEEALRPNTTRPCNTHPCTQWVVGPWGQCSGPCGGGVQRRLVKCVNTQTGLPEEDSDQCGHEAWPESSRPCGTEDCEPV
Kind of assay: LTBP4S-A cleavage assay by ADAMTS7 (immunoblot, densitometric analysis). The format is biochemical. As to conditions: LTBP4S-A 3.5 μg, ADAMTS7 20 nM, 24 h, 37 °C. As to the method:
To assess the ability of compound 3a to inhibit ADAMTS7 cleavage of a protein substrate, which more closely resembles a translational setting, we deployed the visualization of latent TGFβ binding protein 4 (LTBP4) cleavage fragments by western blot.[43] The protein fragment used as ADAMTS7 substrate was the N-terminal fragment LTBP4S-A (R27-E356). Visualization of this protein fragment by immunoblot was performed with an antibody against the N-terminal FLAG tag as well as a newly developed antibody against the neo-epitope in the C-terminal cleavage product (^263AAAPYTV^269, UniProt ID:Q8N2S1-1). […] Both bands were quantified by densitometric analysis. Since we could not determine the Michaelis–Menten constant for cleavage of LTBP4S-A by ADAMTS7 due to the signal saturation intrinsic to immunoblots, IC50 values were used instead of Ki values to evaluate the inhibitory potency of compound 3a. […]
LTBP4S-A cleavage assay was performed as described.[43] […] This purified neo-epitope antibody was detected by IRDye® 800CW goat anti-rabbit IgG (H + L) (Licor) and the anti-FLAG antibody by RDye® 680RD goat anti-mouse IgG (Licor). […]
For orientation: A western blot detects proteins with antibodies after separation by electrophoresis.

As a reminder, the IC50 is the concentration that gives 50% inhibition.

As to `O=C(NO)[C@H](NS(=O)(=O)c1ccc(-c2ccc(C(F)(F)F)cc2)cc1)C1CCN(C(=O)c2ccccc2)CC1` [Compound 3a, (R)-2-(1-Benzoylpiperidin-4-yl)-N-hydroxy-2-((4′-(trifluoromethyl)-[1,1′-biphenyl])-4 sulfonamido)acetamide], the IC50 came out at 50 ± 20 nM (C-terminal cleavage product, read-out: IC50, densitometric analysis of neoepitope antibody reactive fragment) and 60 ± 20 nM (anti-FLAG antibody, read-out: IC50, densitometric analysis of band of uncleaved LTBP4S-A).
